Measurements reported in US11905306B2 (priority 2021, dated 2024).

Columns and labels:
[1] = test system: Toronto 2 SARS CoV-1; experiment: organism not typed; format: cell-based; details: Vero C1008, 72 h, read-out: SARS-1 EC50 (μM) VeroE6
[2] = in vitro; details: African green monkey
[3] = test system: USA_WA1/2020 SARS CoV-2; experiment: microbe, parasite or virus in culture; format: cell-based; details: Severe acute respiratory syndrome coronavirus 2, Vero C1008, 72 h, read-out: SARS-2 EC50 (μM) VeroE6
[4] = test system: SARS-2; experiment: microbe, parasite or virus in culture; format: cell-based; details: Severe acute respiratory syndrome coronavirus 2, read-out: SARS-2 VU-EC50 (μM) (A549-hACE2)
[5] = test system: SARS-2

SMILES	EC50 [1] [µM]	CC50 [2] [µM]	EC50 [3] [µM]	EC50 [4] [µM]	SARS-2 VU-VTR @ 20 μM (A549-hACE2) (logs) [5] [logs]
O=C(Nc1cccc(C#Cc2ccccn2)c1)c1ccc(N2CCCCC2=O)cc1 [Compound 22, 4-(2-Oxopiperidin-1-yl)-N-(3-(pyridin-2-ylethynyl)phenyl)benzamide]	1.3	> 30	1.87	1.05	2.4
CC(C)N1CCN(c2ccc(C(=O)Nc3cccc(C#Cc4ccccn4)c3)cc2)C1=O [Compound 17, 4-(3-Isopropyl-2-oxoimidazolidin-1-yl)-N-(3-(pyridin-2-ylethynyl)phenyl)benzamide]	2.37	> 30	0.61	0.43	2.12
O=C(Nc1ccc(C(=O)OCC2CC2)cc1)c1cccc(C#Cc2ccccn2)c1 [Compound 66, Cyclopropylmethyl 4-(3-(pyridin-2-ylethynyl)benzamido)benzoate]	0.49	> 30	0.83	0.46	1.73
O=C(Nc1cccc(C#Cc2ccccn2)c1)c1ccc(NC(=O)C2CC2)cc1 [Compound 8, 4-(Cyclopropanecarboxamido)-N-(3-(pyridin-2-ylethynyl)phenyl)benzamide]	0.47	> 30	0.94	1.07	1.53
O=C(Nc1cccc(C#Cc2ccccn2)c1)c1ccc(NC(=O)C2CCC2)cc1 [Compound 9, 4-(Cyclobutanecarboxamido)-N-(3-(pyridin-2-ylethynyl)phenyl)benzamide]	0.21	> 30	0.26	0.69	1.88
O=C(Nc1cccc(C#Cc2ccccn2)c1)c1ccc(N2CCNC2=O)cc1 [Compound 14, 4-(2-Oxoimidazolidin-1-yl)-N-(3-(pyridin-2-ylethynyl)phenyl)benzamide]	1.05	> 30	1.06	2.31	1.84
O=C(Nc1ccc(C(=O)Nc2cccc(C#Cc3ccccn3)c2)cc1)c1ccc(F)cc1 [Compound 26, 4-Fluoro-N-(4-((3-(pyridin-2-ylethynyl)phenyl)carbamoyl)phenyl)benzamide]	0.35	> 30	0.49	0.69	1.16
CC(=O)Nc1ccc(C(=O)Nc2cccc(C#Cc3ccccn3)c2)cc1 [Compound 5, 4-Acetamido-N-(3-(pyridin-2-ylethynyl)phenyl)benzamide]	2.14	> 30	3.89	3.58	2.05
O=C(Nc1ccc(N2CCCCS2(=O)=O)cc1)c1cccc(C#Cc2ccccn2)c1 [Compound 70, N-(4-(1,1-dioxido-1,2-thiazinan-2-yl)phenyl)-3-(pyridin-2-ylethynyl)benzamide]	1.29	> 30	1.08	0.82	2.47
O=C(Nc1cccc(C#Cc2ccccn2)c1)c1ccc(NC(=O)C(F)(F)F)cc1 [Compound 10, N-(3-(Pyridin-2-ylethynyl)phenyl)-4-(2,2,2-trifluoroacetamido)benzamide]	4.89	> 30	6.52		
O=C(Nc1cccc(C#Cc2ccccn2)c1)c1ccc(N2CCN(C3CCC3)CC2=O)cc1 [Compound 32, 4-(4-Cyclobutyl-2-oxopiperazin-1-yl)-N-(3-(pyridin-2-ylethynyl)phenyl)benzamide]	6.08	23.1	5.02		
CC(=O)Nc1ccc(C(=O)Nc2cccc(C#Cc3ccccn3)c2)cc1O [Compound 30, 4-Acetamido-3-hydroxy-N-(3-(pyridin-2-ylethynyl)phenyl)benzamide]	6.18	> 30	4.37		
COC(=O)c1cccc(NC(=O)c2cccc(C#Cc3ccccn3)c2)c1 [Compound 64, Methyl 3-(3-(pyridin-2-ylethynyl)benzamido)benzoate]	4.19	21.7	> 30		
O=C(Nc1cccc(C#Cc2ccccn2)c1)c1ccc(N2CCCOC2=O)cc1 [Compound 18, 4-(2-Oxo-1,3-oxazinan-3-yl)-N-(3-(pyridin-2-ylethynyl)phenyl)benzamide]	> 30	> 30	> 30		
COC(=O)c1ccc(NC(=O)c2cccc(C#Cc3ccccn3)c2)cc1 [Compound 63, Methyl 4-(3-(pyridin-2-ylethynyl)benzamido)benzoate]	0.43	> 30	0.55		
CC(=O)Nc1ccc(C(=O)Nc2cccc(C#Cc3ccccn3)c2)nn1 [Compound 31, 6-Acetamido-N-(3-(pyridin-2-ylethynyl)phenyl)pyridazine-3-carboxamide]	> 30	> 30	> 30		
COc1ccc(C(=O)Nc2ccc(C(=O)Nc3cccc(C#Cc4ccccn4)c3)cc2)cc1 [Compound 27, 4-Methoxy-N-(4-((3-(pyridin-2-ylethynyl)phenyl)carbamoyl)phenyl)benzamide]	> 30	> 30	> 30		

SMILES	EC50 [1] [µM]	CC50 [2] [µM]	EC50 [3] [µM]	EC50 [4] [µM]	SARS-2 VU-VTR @ 20 μM (A549-hACE2) (logs) [5] [logs]
COc1cc(C#Cc2ccccn2)cc(C(=O)Nc2ccc(N3CCCCC3=O)cc2)c1 [Compound 72, 3-methoxy-N-(4-(2-oxopiperidin-1-yl)phenyl)-5-(pyridin-2-ylethynyl)benzamide]	0.24	26.6	0.51		
O=C(Nc1cccc(C#Cc2ccccn2)c1)c1ccc(N2CCN(CC3CCC3)CC2=O)cc1 [Compound 33, 4-(4-(Cyclobutylmethyl)-2-oxopiperazin-1-yl)-N-(3-(pyridin-2-ylethynyl)phenyl)benzamide]	4.62	> 30	> 30		
CC(C)(C)c1ccc(NC(=O)c2cccc(C#Cc3ccccn3)c2)cc1 [Compound 67, N-(4-(tert-butyl)phenyl)-3-(pyridin-2-ylethynyl)benzamide]	3.51	> 30	4.25		
O=C(Nc1ccc(N2CCC2=O)cc1)c1cccc(C#Cc2ccccn2)c1 [Compound 57, N-(4-(2-oxoazetidin-1-yl)phenyl)-3-(pyridin-2-ylethynyl)benzamide]	1.74	> 30	4.01		
Cc1cc(C#Cc2ccccn2)nc(NC(=O)c2ccc3c(c2)CCC(=O)N3)c1 [Compound 47, N-(4-Methyl-6-(pyridin-2-ylethynyl)pyridin-2-yl)-2-oxo-1,2,3,4-tetrahydroquinoline-6-carboxamide]	5.51	> 30	6.29		
CC1(NC(=O)c2ccc(NC(=O)c3cccc(C#Cc4ccccn4)c3)cc2)CC1 [Compound 61, N-(4-((1-methylcyclopropyl)carbamoyl)phenyl)-3-(pyridin-2-ylethynyl)benzamide]	> 30	> 30	0.71		
CN(C)c1ccc(C(=O)Nc2cccc(C#Cc3ccccn3)c2)cc1 [Compound 42, 4-(Dimethylamino)-N-(3-(pyridin-2-ylethynyl)phenyl)benzamide]	1.57	> 30	6.52		
CC(=O)N(C)c1ccc(C(=O)Nc2cccc(C#Cc3ccccn3)c2)cc1 [Compound 19, 4-(N-methylacetamido)-N-(3-(pyridin-2-ylethynyl)phenyl)benzamide]	2.19	> 30	3.92		
COc1cc(C#Cc2ccccn2)cc(C(=O)Nc2ccc(N3CCCCS3(=O)=O)cc2)c1 [Compound 75, N-(4-(1,1-dioxido-1,2-thiazinan-2-yl)phenyl)-3-methoxy-5-(pyridin-2-ylethynyl)benzamide]	0.065	> 30	0.128		
CC1(C)CN(c2ccc(C(=O)Nc3cccc(C#Cc4ccccn4)c3)cc2)C1=O [Compound 21, 4-(3,3-Dimethyl-2-oxoazetidin-1-yl)-N-(3-(pyridin-2-ylethynyl)phenyl)benzamide]	0.52	> 30	0.32		
O=C(Nc1cccc(C#Cc2ccccn2)c1)c1ccc(N2CCCC3(CCC3)C2=O)cc1 [Compound 36, 4-(5-Oxo-6-Azaspiro[3.5]nonan-6-yl)-N-(3-(pyridin-2-ylethynyl)phenyl)benzamide]	0.35	15.3	0.49		
CCOC(=O)Nc1ccc(C(=O)Nc2cccc(C#Cc3ccccn3)c2)cc1 [Compound 11, Ethyl (4-((3-(pyridin-2-ylethynyl)phenyl)carbamoyl)phenyl)carbamate]	0.84	> 30	1.07		
O=C(Nc1cccc(C#Cc2ccccn2)c1)c1ccc(C(=O)NC2CC2)cc1 [Compound 37, N^1-cyclopropyl-N^4-(3-(pyridin-2-ylethynyl)phenyl)terephthalamide]	2.12	> 30	4		
O=C(Nc1ccc(C(O)(C(F)(F)F)C(F)(F)F)cc1)c1cccc(C#Cc2ccccn2)c1 [Compound 68, N-(4-(1,1,1,3,3,3-hexafluoro-2-hydroxypropan-2-yl)phenyl)-3-(pyridin-2-ylethynyl)benzamide]	0.52	9.72	27.7		
N#CC1(c2ccc(C(=O)Nc3cccc(C#Cc4ccccn4)c3)cc2)CC1 [Compound 45, 4-(1-Cyanocyclopropyl)-N-(3-(pyridin-2-ylethynyl)phenyl)benzamide]	3.12	20.8	3.72		
COc1cc(C#Cc2ccccn2)cc(NC(=O)c2ccc(N3CCCCS3(=O)=O)cc2)c1 [Compound 76]	0.172	> 30	0.189		
